The target in the test is T1, FPR2 (Homo sapiens, UniProt P25090).
T1 construct: expressed in transfected cells; host or cells: CHO-Gα16 cells
T1 sequence (P25090 1-351): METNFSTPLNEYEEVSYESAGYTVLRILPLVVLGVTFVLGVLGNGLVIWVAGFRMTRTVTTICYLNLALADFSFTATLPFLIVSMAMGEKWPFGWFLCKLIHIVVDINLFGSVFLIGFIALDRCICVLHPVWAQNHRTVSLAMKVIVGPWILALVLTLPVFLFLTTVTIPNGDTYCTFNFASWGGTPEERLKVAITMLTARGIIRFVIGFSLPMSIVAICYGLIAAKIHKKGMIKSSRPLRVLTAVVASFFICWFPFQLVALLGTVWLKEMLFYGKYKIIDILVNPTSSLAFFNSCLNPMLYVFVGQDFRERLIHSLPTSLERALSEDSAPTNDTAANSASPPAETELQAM
Description: compound-induced calcium activity on FLIPR Tetra in CHO-Gα16 cells stably expressing FPR2. Format: cell-based. As to conditions: for Emax: efficacy value in brackets after EC50, read-out: FPR2 Gα16-CHO (% eff); for EC50: tested 0.61 to 10,000 nM. Here is the method: CHO-Gα16 cells stably expressing FPR2 were cultured in (F12, 10% FBS, 1% PSA, 400 μg/ml geneticin and 50 μg/ml hygromycin) and HEK-Gqi5 cells stable expressing FPR1 were cultured in (DMEM high glucose, 10% FBS, 1% PSA, 400 μg/ml geneticin and 50 μg/ml hygromycin). In general, the day before the experiment, 18,000 cells/well were plated in a 384-well clear bottom poly-D-lysine coated plate. The following day the screening compound-induced calcium activity was assayed on the FLIPR^Tetra. The drug plates were prepared in 384-well microplates using the EP3 and the MultiPROBE robotic liquid handling systems. Compounds were tested at concentrations ranging from 0.61 to 10,000 nM. Results are expressed as EC50 (nM) and % efficacy values.

For twelve compounds, Emax and EC50 results are on record in patent US9926264B2, “Phenylcarbamate derivatives as formyl peptide receptor modulators” (Allergan, Inc., priority 2013, dated 2018).

Turning to `CC(C)C[C@H](OC(=O)Nc1ccc(Br)cc1)C(=O)NCC(=O)OC(C)(C)C` [Compound 1, tert-Butyl {[(2S)-2-{[(4-Bromophenyl)carbamoyl]oxy}-4-methylpentanoyl]amino}acetate], the Emax turned out to be 89% and the EC50 was determined as 526 nM.

As to `CC(C)C[C@H](OC(=O)Nc1ccc(C(F)(F)F)cc1)C(=O)NCC(=O)OC(C)(C)C` [Compound 2, tert-Butyl {[(2S)-4-Methyl-2-({[4-(trifluoromethyl)phenyl]carbamoyl}oxy)pentanoyl]amino}acetate], the Emax amounted to 112% and the EC50 was 2020 nM.

On to `CC(C)C[C@H](OC(=O)Nc1ccc(Br)cc1)C(=O)N(C)CC(=O)OC(C)(C)C` [Compound 3, tert-Butyl {[(2S)-2-{[(4-Bromophenyl)carbamoyl]oxy}-4-methylpentanoyl](methyl)amino}acetate], for which the Emax is 101% and the EC50 stood at 109 nM.

`CC(C)C[C@H](OC(=O)Nc1ccc(Br)cc1)C(=O)N(C)CCO` [Compound 4, (2S)-1-[(2-Hydroxyethyl)(methyl)amino]-4-methyl-1-oxopentan-2-yl (4-bromophenyl)carbamate]: the Emax is 97% and the EC50 turned out to be 59 nM.

In the case of `CCOP(=O)(CNC(=O)[C@H](CC(C)C)OC(=O)Nc1ccc(C(F)(F)F)cc1)OCC` [Compound 5, Diethyl ({[(2S)-4-methyl-2-({[4-(Trifluoromethyl)phenyl]carbamoyl}oxy)pentanoyl]amino}methyl)phosphonate], the Emax was determined as 101% and the EC50 amounted to 6.7 nM.

For the compound `CC(C)C[C@H](OC(=O)Nc1ccc(C(F)(F)F)cc1)C(=O)NCCO` [Compound 6, (2S)-1-[(2-Hydroxyethyl)amino]-4-Methyl-1-oxopentan-2-yl [4-(trifluoromethyl)phenyl]carbamate], the Emax was determined as 75% and the EC50 amounted to 146 nM.

In the case of `CC(C)C[C@H](OC(=O)Nc1ccc(Br)cc1)C(=O)NCCO` [Compound 7, (2S)-1-[(2-Hydroxyethyl)amino]-4-methyl-1-oxopentan-2-yl (4-bromophenyl)carbamate], the Emax was determined as 98% and the EC50 stood at 35 nM.

In the case of `CCOP(=O)(CNC(=O)[C@H](CC(C)C)OC(=O)Nc1ccc(Br)cc1)OCC` [Compound 8, Diethyl ({[(2S)-2-{[(4-bromophenyl)carbamoyl]oxy}-4-methylpentanoyl]amino}methyl)phosphonate], the Emax turned out to be 100% and the EC50 is 1.8 nM.

Turning to `CCCN(CC(=O)OC(C)(C)C)C(=O)[C@H](CC(C)C)OC(=O)Nc1ccc(Br)cc1` [Compound 9, tert-Butyl {[(2S)-2-{[(4-Bromophenyl)carbamoyl]oxy}-4-methylpentanoyl](propyl)amino}acetate], the Emax was 104% and the concentration for a half-maximal effect (EC50) was determined as 4.4 nM.

Take `CC(C)C[C@H](OC(=O)Nc1ccc(Br)cc1)C(=O)N(CC(=O)OC(C)(C)C)C(C)C` [Compound 10, tert-Butyl {[(2S)-2-{[(4-Bromophenyl)carbamoyl]oxy}-4-methylpentanoyl](propan-2-yl)amino}acetate]: the Emax is 103% and the concentration giving a half-maximal response (EC50) was 11 nM.

With `CCN(CC(=O)OC(C)(C)C)C(=O)[C@H](CC(C)C)OC(=O)Nc1ccc(Br)cc1` [Compound 11, tert-Butyl {[(2S)-2-{[(4-Bromophenyl)carbamoyl]oxy}-4-methylpentanoyl](ethyl)amino}acetate], the Emax is 97% and the EC50 stood at 8 nM.

As to `CC(C)C[C@H](OC(=O)Nc1ccc(C(F)(F)F)cc1)C(=O)N(C)CC(=O)OC(C)(C)C` [Compound 12, tert-Butyl {Methyl[(2S)-4-methyl-2-({[4-(trifluoromethyl)phenyl]carbamoyl}oxy)pentanoyl]amino}acetate], the Emax stood at 100% and the EC50 came to 24.8 nM.

As usually defined, the EC50 is the midpoint of the concentration-response curve.
